According to patent publication US8609414B2, “Isolation and growth of stem cells from hemangiomas” (priority 2007, dated 2013):

Test system: hemangioma tumor spheres
Conditions: DMEM/F12 + 50 μg/ml VEGF + NEAA
Description: Another key property of stem cells is their ability to differentiate into mature cells. To assess whether hemangioma tumor sphere cells are able to differentiate into mature cells, tumor cells were cultured in appropriate growth factors.

VEGF
differentiation of hemangioma tumor sphere cells into mature cells (72 hours): differentiated into the endothelial-like tissue
time to changes in cell morphology (phase-contrast microscopy): ≤ 24 hours
